Experimental data taken from patent US12359242B2, “Chemical platform assisted proximity capture (CAP-C)” (The University of Chicago, priority 2018, dated 2025).

Tested on: mouse embryonic stem cells (mESCs)
Test: CAP-C with G5 dendrimers on mESC samples treated with transcription elongation inhibitors
Format: cell-based
Details: for peaks originally called in the control sample that remained: second time point; for contacts in 10 kb resolution contact matrix: mESC; for contact probability between distance-scaled bins 2-7, loop and non-loop domains: versus G5-control
Excerpt: The inventors then diffuse dendrimers into the cell nucleus and expose these cells to UV irradiation (FIG. 1A). The formaldehyde fixing is then reversed, and DNA-bound proteins are removed with protease to expose all DNA motifs, the dendrimer-DNA complexes are subsequently purified with ethanol precipitation. The purified dendrimer-DNA complexes are then subjected to MboI restriction digestion and end-filling with biotin-bearing DNA, followed by ligation under ultra-diluted solution, biotin capture and high-throughput sequencing (FIG. 1A). Dendrimers with a defined size were used for each CAP-C experiment.
Inhibition of transcription reduces supercoiling and leads to global loss of chromatin contacts. Chromatin topology highly associates with supercoiling, and supercoiling domains have been proposed and identified. […] Motivated by a relationship between transcription-induced supercoiling and domain organization, the inventors next examined whether transcription inhibition affects chromatin architecture. The inventors explored two different transcription elongation inhibitors, flavopiridol and α-amanitin. Reduced levels and rates of supercoiling have been observed upon transcription inhibition. Thus, the inventors performed time-series CAP-C experiments using G5 dendrimers to crosslink mESC samples treated with 2 μM flavopiridol for 1 h and 6 h, as well as samples treated with 4 μg/ml of α-amanitin for 6 h and 12 h, respectively.
The signals of these peaks were, however, weakly attenuated (FIG. 5A). Because these inhibitor-treated and G5-control samples are low-resolution contact maps, the inventors applied Aggregate Peak Analysis (APA) of the peaks called in the deep sequenced CAP-C dataset. […] The inventors plotted the mean contact maps of 103-263 loop-domains (median length: 170 Kb) shared between the control and inhibitor-treated samples by rescaling them into 10 bins (i.e. contact domains in G5-control overlapping loops that are shared between control and inhibitor-treated samples). […] The inventors also quantified these maps into a contact probability vs distance-scaled bins line-plot for all loop domains, non-loop domains and randomly permutated domains. […] Increasing contact frequencies identified at corners of inhibitor-treated loop-domains (bins 8-10) indicate the presence as well as attenuation of peaks from G5-control (FIG. 5E). This is in stark contrast to the absence of such an increase in non-loop domains and randomly permutated domain boundaries.

## CC[C@H](C)[C@@H]1NC(=O)CNC(=O)[C@@H]2Cc3c([nH]c4cc(O)ccc34)[S+]([O-])C[C@@H](NC(=O)CNC1=O)C(=O)N[C@@H](CC(N)=O)C(=O)N1C[C@H](O)C[C@H]1C(=O)N[C@@H]([C@@H](C)[C@@H](O)CO)C(=O)N2 (stereo in doubt) [α-amanitin]
6 h and 12 h treated samples
  APA scores versus control: greater
12 hr treatment
  peaks originally called in the control sample that remained: more than half
4 μg/ml α-amanitin for 6 h and 12 h
  contacts in 10 kb resolution contact matrix: profound decrease in contacts
  contact probability between distance-scaled bins 2-7, loop and non-loop domains: general decrease

## CN1CC[C@H](c2c(O)cc(O)c3c(=O)cc(-c4ccccc4Cl)oc23)[C@H](O)C1 [flavopiridol]
6 hr treatment
  peaks originally called in the control sample that remained: more than half
flavopiridol-treated samples
  loops (APA and meta-analysis): attenuated but preserved
2 μM flavopiridol for 1 h and 6 h
  contacts in 10 kb resolution contact matrix: profound decrease in contacts
Transcription inhibitor-treated vs control
  contacts over 1 Mb (relative contact frequency vs distance): slightly strong depletion
  contact probability between distance-scaled bins 2-7, loop and non-loop domains: same trends
